# In patent US11357779B2 (G1 Therapeutics, Inc., priority 2018, dated 2022):
# Assay: Noncompartmental pharmacokinetic parameters (Cmax, Tmax, AUC, Racc) in QD and BID cohorts of Form B
# Assay type: in vivo, human
# Settings: for Racc (Max) / Racc (Mean) / Racc (Median) / Racc (Min): AUCDay 29/AUCDay 1
# Procedure: Analysis of plasma concentration versus time data for calculation of standard pharmacokinetic (PK) parameters following oral administration was conducted using Phoenix WinNonlin version 6.3 using actual blood sampling times.
# The following pharmacokinetic parameters were calculated from the concentration versus time data obtained in Example 1 for each of the above QD (200 mg, 300 mg, 400 mg, 500 mg, or 650 mg dosed) and BID (100 mg, 150 mg, or 200 mg doses) Form B of Compound II dosage cohorts: • Cmax—the observed peak plasma concentration determined from the plasma concentration versus time data obtained on Day 1 and Day 29, as applicable; • Tmax—the time to reach the observed peak plasma concentration from the plasma concentration versus time data obtained on Day 1 and Day 29, as applicable; • AUC—area under the plasma concentration versus time curve during a dosing interval on Day 1 and Day 29, as applicable; and • Racc—accumulation ratio calculated as AUCDay 29/AUCDay 1.
# [1] = Cohort 1, 200 mg QD of Form B, Day 1
# [2] = Cohort 2, 300 mg QD of Form B, Day 1
# [3] = Cohort 3, 400 mg QD of Form B, Day 1
# [4] = Cohort 4, 500 mg QD of Form B, Day 1
# [5] = Cohort 5, 650 mg QD of Form B, Day 1
# [6] = Cohort 6, 100 mg BID of Form B, Day 1
# [7] = Compound I, 100 mg BID of Form B, Cohort 6
# [8] = Compound I, 100 mg BID of Form B, Cohort 6, Day 29
# [9] = Compound I, 150 mg BID of Form B, Cohort 7
# [10] = Compound I, 150 mg BID of Form B, Cohort 7, Day 1
# [11] = Compound I, 150 mg BID of Form B, Cohort 7, Day 29
# [12] = Compound I, 200 mg BID of Form B, Cohort 7, Day 1
# [13] = Compound I, 200 mg BID of Form B, Cohort 8
# [14] = Compound I, 200 mg BID of Form B, Cohort 8, Day 29
# [15] = Compound I, 200 mg QD of Form B, Cohort 1
# [16] = Compound I, 200 mg QD of Form B, Cohort 1, Day 29
# [17] = Compound I, 300 mg QD of Form B, Cohort 2
# [18] = Compound I, 300 mg QD of Form B, Cohort 2, Day 29
# [19] = Compound I, 400 mg QD of Form B, Cohort 3
# [20] = Compound I, 400 mg QD of Form B, Cohort 3, Day 29
# [21] = Compound I, 500 mg QD of Form B, Cohort 4
# [22] = Compound I, 500 mg QD of Form B, Cohort 4, Day 29
# [23] = Compound I, 650 mg QD of Form B, Cohort 5
# [24] = Compound I, 650 mg QD of Form B, Cohort 5, Day 29
smiles,measurement,setting,value
"CC(C)N1CCN(c2ccc(Nc3ncc4cc5n(c4n3)C3(CCCCC3)CNC5=O)nc2)CC1 [Compound I, 2′-((5-(4-isopropylpiperazin-1-yl)pyridin-2-yl)amino)-7′,8′-dihydro-6′H-spiro[cyclohexane-1,9′-pyrazino[1′,2′:1,5]pyrrolo[2,3-d]pyrimidin]-6′-one]",AUClast (Max),[1],355 ng·h/mL
same,AUClast (Min),[1],98.9 ng·h/mL
same,Cmax (Max),[1],40.0 ng/mL
same,Cmax (Min),[1],8.26 ng/mL
same,AUClast (Max),[2],580 ng·h/mL
same,AUClast (Min),[2],106 ng·h/mL
same,AUClast (Max),[3],248 ng·h/mL
same,AUClast (Min),[3],177 ng·h/mL
same,Cmax (Max),[3],24.4 ng/mL
same,Cmax (Min),[3],14.4 ng/mL
same,AUClast (Max),[4],684 ng·h/mL
same,AUClast (Min),[4],403 ng·h/mL
same,Cmax (Max),[4],68.7 ng/mL
same,Cmax (Min),[4],27.8 ng/mL
same,AUClast (Max),[5],1040 ng·h/mL
same,AUClast (Min),[5],482 ng·h/mL
same,Cmax (Max),[5],80.7 ng/mL
same,Cmax (Min),[5],38.2 ng/mL
same,Tmax (Max),[5],10.0 h
same,AUClast (Max),[6],92.6 ng·h/mL
same,AUClast (Min),[6],42.8 ng·h/mL
same,Cmax (Max),[6],14.7 ng/mL
same,Cmax (Min),[6],7.25 ng/mL
same,Racc (Max),[7],2.96 (h * ng/mL)/(h * ng/mL)
same,Racc (Mean),[7],1.90 (h * ng/mL)/(h * ng/mL)
same,Racc (Median),[7],2.06 (h * ng/mL)/(h * ng/mL)
same,Racc (Min),[7],0.931 (h * ng/mL)/(h * ng/mL)
same,AUClast (Max),[8],183 ng·h/mL
same,AUClast (Min),[8],41.1 ng·h/mL
same,Cmax (Max),[8],20.5 ng/mL
same,Cmax (Min),[8],5.14 ng/mL
same,Tmax (Max),[8],12.0 h
same,Tmax (Min),[8],60 min
same,Racc (Max),[9],7.71 (h * ng/mL)/(h * ng/mL)
same,Racc (Mean),[9],3.88 (h * ng/mL)/(h * ng/mL)
same,Racc (Median),[9],2.28 (h * ng/mL)/(h * ng/mL)
same,Racc (Min),[9],1.66 (h * ng/mL)/(h * ng/mL)
same,AUClast (Max),[10],146 ng·h/mL
same,AUClast (Min),[10],103 ng·h/mL
same,Cmax (Max),[10],28.3 ng/mL
same,Cmax (Min),[10],12.2 ng/mL
same,AUClast (Max),[11],795 ng·h/mL
same,AUClast (Min),[11],235 ng·h/mL
same,Cmax (Max),[11],83.2 ng/mL
same,AUClast (Max),[12],185 ng·h/mL
same,AUClast (Min),[12],37.9 ng·h/mL
same,Cmax (Max),[12],29.0 ng/mL
same,Cmax (Min),[12],5.28 ng/mL
same,Racc (Max),[13],2.15 (h * ng/mL)/(h * ng/mL)
same,Racc (Mean),[13],2.06 (h * ng/mL)/(h * ng/mL)
same,Racc (Median),[13],2.11 (h * ng/mL)/(h * ng/mL)
same,Racc (Min),[13],1.91 (h * ng/mL)/(h * ng/mL)
same,AUClast (Max),[14],306 ng·h/mL
same,AUClast (Min),[14],79.8 ng·h/mL
same,Cmax (Max),[14],40.8 ng/mL
same,Cmax (Min),[14],7.69 ng/mL
same,Tmax (Max),[14],12.0 h
same,Racc (Max),[15],1.72 (h * ng/mL)/(h * ng/mL)
same,Racc (Mean),[15],1.17 (h * ng/mL)/(h * ng/mL)
same,Racc (Median),[15],1.15 (h * ng/mL)/(h * ng/mL)
same,Racc (Min),[15],0.740 (h * ng/mL)/(h * ng/mL)
same,AUClast (Max),[16],407 ng·h/mL
same,AUClast (Min),[16],73.2 ng·h/mL
same,Cmax (Max),[16],32.0 ng/mL
same,Cmax (Min),[16],5.90 ng/mL
same,Racc (Max),[17],3.62 (h * ng/mL)/(h * ng/mL)
same,Racc (Mean),[17],2.03 (h * ng/mL)/(h * ng/mL)
same,Racc (Median),[17],1.42 (h * ng/mL)/(h * ng/mL)
same,Racc (Min),[17],1.04 (h * ng/mL)/(h * ng/mL)
same,AUClast (Max),[18],789 ng·h/mL
same,AUClast (Min),[18],384 ng·h/mL
same,Cmax (Max),[18],73.0 ng/mL
same,Cmax (Min),[18],27.5 ng/mL
same,Tmax (Max),[18],10.0 h
same,Racc (Max),[19],1.90 (h * ng/mL)/(h * ng/mL)
same,Racc (Mean),[19],1.35 (h * ng/mL)/(h * ng/mL)
same,Racc (Median),[19],1.50 (h * ng/mL)/(h * ng/mL)
same,Racc (Min),[19],0.653 (h * ng/mL)/(h * ng/mL)
same,AUClast (Max),[20],371 ng·h/mL
same,AUClast (Min),[20],115 ng·h/mL
same,Cmax (Max),[20],26.7 ng/mL
same,Cmax (Min),[20],6.94 ng/mL
same,Racc (Max),[21],1.47 (h * ng/mL)/(h * ng/mL)
same,Racc (Mean),[21],1.12 (h * ng/mL)/(h * ng/mL)
same,Racc (Median),[21],0.965 (h * ng/mL)/(h * ng/mL)
same,Racc (Min),[21],0.932 (h * ng/mL)/(h * ng/mL)
same,AUClast (Max),[22],660 ng·h/mL
same,AUClast (Min),[22],570 ng·h/mL
same,Cmax (Max),[22],48.2 ng/mL
same,Cmax (Min),[22],36.4 ng/mL
same,Racc (Max),[23],1.47 (h * ng/mL)/(h * ng/mL)
same,Racc (Mean),[23],1.12 (h * ng/mL)/(h * ng/mL)
same,Racc (Median),[23],0.965 (h * ng/mL)/(h * ng/mL)
same,Racc (Min),[23],0.932 (h * ng/mL)/(h * ng/mL)
same,AUClast (Max),[24],660 ng·h/mL
same,AUClast (Min),[24],570 ng·h/mL
same,Cmax (Max),[24],48.2 ng/mL
same,Cmax (Min),[24],36.4 ng/mL
